ChEMBL document CHEMBL1201862, “PubChem BioAssay data set” (2004)
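Method: 48-hour compound exposure of cells in 96-well plates, five concentrations, linear interpolation of endpoints. GI50 is the concentration that inhibits growth by half.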 The source made the active and inactive calls. Rule as the data show it: active = GI50 up to about 1.1 µM and inactive = higher.

What was measured:
Test in all cases: inhibition of tumour cell growth, NCI panel, 48 h
RPMI-8226 = system: RPMI-8226
PC-3 = system: PC-3
MDA-N = system: MDA-N
NCI-H460 = system: NCI-H460
SK-OV-3 = system: SK-OV-3
A498 = system: A498
OVCAR-3 = system: OVCAR-3
KM12 = system: KM12
UACC-257 = system: UACC-257
HT-29 = system: HT-29
786-0 = system: 786-0
SK-MEL-5 = system: SK-MEL-5
NCI-H226 = system: NCI-H226
HOP-92 = system: HOP-92
HCT-15 = system: HCT-15
HOP-62 = system: HOP-62
CAKI-1 = system: CAKI-1
HCC 2998 = system: HCC 2998
Hs-578T = system: Hs-578T
MCF7 = system: MCF7
SNB-19 = system: SNB-19
HL-60 = system: HL-60
LOX IMVI = system: LOX IMVI
U-251 = system: U-251
MDA-MB-231 = system: MDA-MB-231
M14 = system: M14
ACHN = system: ACHN
OVCAR-4 = system: OVCAR-4
UACC-62 = system: UACC-62
NCI/ADR-RES = system: NCI/ADR-RES
MDA-MB-435 = system: MDA-MB-435
T47D = system: T47D
TK-10 = system: TK-10
NCI-H23 = system: NCI-H23
CCRF-CEM = system: CCRF-CEM
SW-620 = system: SW-620
OVCAR-8 = system: OVCAR-8
SK-MEL-2 = system: SK-MEL-2
HCT-116 = system: HCT-116
MOLT-4 = system: MOLT-4
K562 = system: K562
SF-268 = system: SF-268
A549 = system: A549
NCI-H522 = system: NCI-H522
IGROV-1 = system: IGROV-1
DU-145 = system: DU-145
EKVX = system: EKVX
COLO 205 = system: COLO 205
SF-539 = system: SF-539
OVCAR-5 = system: OVCAR-5
SF-295 = system: SF-295
SR = system: SR
SK-MEL-28 = system: SK-MEL-28
SN12C = system: SN12C
Malme-3M = system: Malme-3M
UO-31 = system: UO-31
RXF 393 = system: RXF 393
SNB-75 = system: SNB-75

## CCOC(=O)/C(C)=C\[C@@]1(C)O[C@@H](C)[C@@](C)(OC(C)=O)[C@@H]1OC(C)=O
RPMI-8226
  GI50: 51.8 µM (inactive)
PC-3
  GI50: 36.6 µM (inactive)
MDA-N
  GI50: 44.5 µM (inactive)
NCI-H460
  GI50: 43 µM (inactive)
SK-OV-3
  GI50: 75.7 µM (inactive)
A498
  GI50: 48 µM (inactive)
OVCAR-3
  GI50: 33.4 µM (inactive)
KM12
  GI50: 45.2 µM (inactive)
UACC-257
  GI50: 28.2 µM (inactive)
HT-29
  GI50: 40.6 µM (inactive)
786-0
  GI50: 63.5 µM (inactive)
SK-MEL-5
  GI50: 33.8 µM (inactive)
NCI-H226
  GI50: 39.9 µM (inactive)
HOP-92
  GI50: 25.6 µM (inactive)
HCT-15
  GI50: 17.1 µM
HOP-62
  GI50: 70.6 µM (inactive)
CAKI-1
  GI50: 33 µM (inactive)
HCC 2998
  GI50: 30.2 µM (inactive)
Hs-578T
  GI50: 27 µM (inactive)
MCF7
  GI50: 23 µM (inactive)
SNB-19
  GI50: > 100 µM (inactive)
HL-60
  GI50: 39.6 µM (inactive)
LOX IMVI
  GI50: 71 µM (inactive)
U-251
  GI50: 64.1 µM (inactive)
MDA-MB-231
  GI50: 57.5 µM (inactive)
M14
  GI50: 61.5 µM (inactive)
ACHN
  GI50: 41 µM (inactive)
OVCAR-4
  GI50: 33.4 µM (inactive)
UACC-62
  GI50: 49.9 µM (inactive)
NCI/ADR-RES
  GI50: 30.2 µM (inactive)
MDA-MB-435
  GI50: 41.7 µM (inactive)
T47D
  GI50: 19.9 µM (inactive)
TK-10
  GI50: 78.9 µM (inactive)
NCI-H23
  GI50: 21.5 µM (inactive)
CCRF-CEM
  GI50: 33.5 µM (inactive)
SW-620
  GI50: 67.5 µM (inactive)
OVCAR-8
  GI50: 67.5 µM (inactive)
SK-MEL-2
  GI50: 61.8 µM (inactive)
HCT-116
  GI50: 40.9 µM (inactive)
MOLT-4
  GI50: 30 µM (inactive)
K562
  GI50: 38.6 µM (inactive)
SF-268
  GI50: 39.3 µM (inactive)
A549
  GI50: 45.4 µM (inactive)
NCI-H522
  GI50: 25.2 µM (inactive)
IGROV-1
  GI50: 37.7 µM (inactive)
DU-145
  GI50: 37.1 µM (inactive)
EKVX
  GI50: 36.1 µM (inactive)
COLO 205
  GI50: 30 µM (inactive)
SF-539
  GI50: > 100 µM (inactive)
OVCAR-5
  GI50: > 100 µM (inactive)
SF-295
  GI50: 36.8 µM (inactive)
SR
  GI50: 58.3 µM (inactive)
SK-MEL-28
  GI50: > 100 µM (inactive)
SN12C
  GI50: 57.1 µM (inactive)
Malme-3M
  GI50: 57.3 µM (inactive)

## COC(=O)CCc1ccc2c(c1)CC1(C2)Cc2ccc(CCC(=O)OC)cc2C1
RPMI-8226
  GI50: 28.4 µM (inactive)
UO-31
  GI50: > 100 µM (inactive)
PC-3
  GI50: > 100 µM (inactive)
MDA-N
  GI50: > 100 µM (inactive)
SK-OV-3
  GI50: > 100 µM (inactive)
A498
  GI50: > 100 µM (inactive)
OVCAR-3
  GI50: 77.4 µM (inactive)
KM12
  GI50: > 100 µM (inactive)
UACC-257
  GI50: > 100 µM (inactive)
HT-29
  GI50: 62.7 µM (inactive)
786-0
  GI50: > 100 µM (inactive)
SK-MEL-5
  GI50: 24 µM (inactive)
NCI-H226
  GI50: 38.8 µM (inactive)
HOP-92
  GI50: 35.4 µM (inactive)
HCT-15
  GI50: > 100 µM
HOP-62
  GI50: 62.7 µM (inactive)
HCC 2998
  GI50: > 100 µM (inactive)
Hs-578T
  GI50: > 100 µM (inactive)
MCF7
  GI50: 48.6 µM (inactive)
HL-60
  GI50: 17.1 µM (inactive)
LOX IMVI
  GI50: 26.6 µM (inactive)
U-251
  GI50: 40.1 µM (inactive)
MDA-MB-231
  GI50: 89.9 µM (inactive)
M14
  GI50: > 100 µM (inactive)
ACHN
  GI50: > 100 µM (inactive)
OVCAR-4
  GI50: 53.3 µM (inactive)
UACC-62
  GI50: > 100 µM (inactive)
NCI/ADR-RES
  GI50: > 100 µM (inactive)
MDA-MB-435
  GI50: > 100 µM (inactive)
T47D
  GI50: 58.2 µM (inactive)
TK-10
  GI50: > 100 µM (inactive)
NCI-H23
  GI50: 44.7 µM (inactive)
CCRF-CEM
  GI50: 15.6 µM (inactive)
OVCAR-8
  GI50: 60.1 µM (inactive)
SK-MEL-2
  GI50: > 100 µM (inactive)
HCT-116
  GI50: > 100 µM (inactive)
MOLT-4
  GI50: 29.6 µM (inactive)
K562
  GI50: > 100 µM (inactive)
RXF 393
  GI50: > 100 µM (inactive)
A549
  GI50: > 100 µM (inactive)
NCI-H522
  GI50: 34.5 µM (inactive)
IGROV-1
  GI50: 75.2 µM (inactive)
EKVX
  GI50: > 100 µM (inactive)
COLO 205
  GI50: 57.5 µM (inactive)
SF-539
  GI50: > 100 µM (inactive)
OVCAR-5
  GI50: > 100 µM (inactive)
SF-295
  GI50: 78 µM (inactive)
SR
  GI50: 29.4 µM (inactive)
SNB-75
  GI50: < 0.01 µM (active)
SN12C
  GI50: 68.5 µM (inactive)
Malme-3M
  GI50: 63.1 µM (inactive)
